Laboratory results from patent publication US5352451A, “Biological insect control agents and methods of use” (priority 1991, dated 1994).

target: T1, EGT (Autographa californica nuclear polyhedrosis virus, UniProt P18569); type: biochemical; details: substrate 1 mM; extracellular medium from wt-AcMNPV infected cells; 0.05 μCi UDP-[U-14C]glucose
T1 construct: extracellular medium from wt-AcMNPV infected cells containing significant egt activity; endogenous in cells; host or cells: Spodoptera frugiperda IPLB-SF-21 (SF) cells infected with wild-type AcMNPV; extracellular medium used unpurified; EGT made from the virus's own gene
T1 sequence (P18569 19-506): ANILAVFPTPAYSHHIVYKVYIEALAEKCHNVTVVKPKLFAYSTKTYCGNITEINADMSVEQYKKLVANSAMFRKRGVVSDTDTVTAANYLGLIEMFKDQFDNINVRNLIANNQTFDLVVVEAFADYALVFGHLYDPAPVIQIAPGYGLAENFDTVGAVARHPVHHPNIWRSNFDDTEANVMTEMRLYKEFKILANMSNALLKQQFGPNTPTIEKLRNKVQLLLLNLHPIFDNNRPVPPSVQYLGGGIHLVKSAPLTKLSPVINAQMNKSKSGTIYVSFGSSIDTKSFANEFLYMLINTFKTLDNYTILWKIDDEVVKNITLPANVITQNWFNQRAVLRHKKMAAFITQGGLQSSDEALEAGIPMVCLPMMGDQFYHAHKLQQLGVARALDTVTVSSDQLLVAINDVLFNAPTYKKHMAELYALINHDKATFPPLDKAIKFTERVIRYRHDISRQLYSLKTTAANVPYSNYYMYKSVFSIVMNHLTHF
Protocol: Experiments are then performed to more thoroughly investigate the substrate specificity of EGT. In these experiments various substrates (1 mM) are incubated in the presence of extracellular medium from wt-AcMNPV infected cells containing significant egt activity. As controls to ensure that any conjugation observed is due to EGT, each substrate is also incubated with media from uninfected and vEGTZ-infected cells, which cannot produce EGT. 0.05 μCi UDP-[U-^14 C]glucose are added to each reaction. Any compounds which function as substrates for EGT will be conjugated with glucose; they can be detected because the glucose is radioactively labeled.
Substrates are incubated in the presence of medium derived from
appropriately infected cells and 0.05 μCi UDP[U-^14 C]glucose.
Amounts of glucose transferred are calculated after scintillation countin
of the appropriate regions of the chromatography plates.
The only substrates identified are ecdysone, 20-hydroxyecdysone and makisterone A, all of which are ecdysteriods. No conjugation is observed using medium from mock- or vEGTZ-infected cells, confirming that the activity observed is due to expression of egt.

Row | SMILES | wild type (pmol Glucose transferred) [pmol]
1 | CC(C)(O)CCC(O)C(C)(O)C1CCC2(O)C3=CC(=O)C4CC(O)C(O)CC4(C)C3CCC12C (stereo not drawn) [20-Hydroxyecdysone] | 87.8
2 | C[C@H]([C@H](O)CCC(C)(C)O)[C@H]1CC[C@@]2(O)C3=CC(=O)[C@@H]4C[C@@H](O)[C@@H](O)C[C@]4(C)[C@H]3CC[C@]12C [Ecdysone] | 155.7
3 | CC(CC(O)C(C)(O)C1CCC2(O)C3=CC(=O)C4CC(O)C(O)CC4(C)C3CCC12C)C(C)(C)O (stereo not drawn) [Makisterone A] | 89.6
